Data taken from patent US6462055B2, “Alpha-methylbenzyl-containing thiourea inhibitors of herpes viruses containing a phenylenediamine group” (Wyeth, priority 1998, dated 2002).
Values after ≈ are worked out from the molar mass of the structure shown.

How the values were obtained:
[1] = test system: HCMV recombinant mutant virus (RV145); test: microbe, parasite or virus in culture; assay type: cell-based, human cytomegalovirus; conditions: for IC50: Human betaherpesvirus 5, read-out: IC50 ug/ml HCMV, HCMV
In short: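 Human foreskin fibroblasts infected with HCMV RV145 carrying a viral-promoter-driven beta-glucuronidase gene, in presence of compound. At 96 h post-infection, lysates assayed for beta-glucuronidase with colorimetric or fluorogenic glucuronide substrate as replication read-out. IC50 estimated from varying inhibitor amounts.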

[2] = test system: VZV strain Ellen; test: VZV Antiviral (ELISA) Assay in human foreskin fibroblast cells; assay type: cell-based, varicella-zoster virus; conditions: for inhibition at 10 µg/mL / IC50: Human alphaherpesvirus 3, Fibroblast; for inhibition at 10 µg/mL: read-out: % inhibition 10 ug/ml VZV, 10 ug/ml; for IC50: read-out: IC50 (ug/ml) VZV
In short: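 HFF cells infected with VZV Ellen at low multiplicity (<0.1) overnight were seeded at 3.5×10^4 cells/well in DMEM with 2% FBS plus compound and incubated three days at 37° C., 5% CO2. Viral replication was read by ELISA against glycoprotein II with β-galactosidase fluorogenic readout (ex 365/em 450 nm); IC50 relative to no-compound fluorescence.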

[3] = test system: HSV-1; test: HSV Antiviral (ELISA) Assay in Vero cells; assay type: cell-based, herpes simplex virus type 1; conditions: HSV-1, Vero cells; for IC50: Human alphaherpesvirus 1, read-out: IC50 (ug/ml) HSV
In short: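 Viral replication was quantified by cell-fixed ELISA for HSV glycoprotein D, using a β-galactosidase reporter and fluorogenic umbelliferyl substrate, about 24 h after HSV-1 infection (MOI 0.006) of Vero cells. Compounds, at several concentrations, were added 30 min pre-infection. IC50 was derived from fluorescence relative to the compound-free signal.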

Row | Compound | IC50 ug/ml HCMV [1] [µg/mL] | IC50 (ug/ml) VZV [2] [µg/mL] | % inhibition 10 ug/ml VZV [2] [%] | IC50 (ug/ml) HSV [3] [µg/mL] | IC50 [1] [µg/mL] | inhibition at 10 µg/mL [2] [%] | IC50 [2] [µg/mL] | IC50 [3] [µg/mL]
1 | COc1cc(C)c(Cl)cc1NC(=S)Nc1ccc(NC(=O)c2ccccc2F)cc1Cl [Example 458] | >10 | >10 | 25 | 0.06 (≈ 0.125 µM) | – | – | – | –
2 | CN1CCC(N(C)c2ccc(NC(=S)Nc3ccc(NC(=O)c4c(F)cccc4F)cc3)cc2Cl)C1 (stereo not drawn) [Example 349] | 1.2 (≈ 2.26 µM) | 4 (≈ 7.55 µM) | 110 | 5 (≈ 9.43 µM) | – | – | – | –
3 | O=C(O)c1cccc(NC(=S)Nc2ccc(NC(=O)c3ccccc3F)cc2)c1 [Example 963, 3-{3-[4-(2-Fluoro-benzoylamino)-phenyl]-thioureido}-benzoic acid] | – | – | – | – | > 10 | 30 | > 10 | > 10
4 | CS(=O)(=O)Nc1ccc(NC(=S)Nc2ccc(NC(=O)c3ccccc3F)cc2)cc1Cl [Example 370] | >10 | >10 | 16 | >10 | – | – | – | –
5 | COc1ccc(C(C)NC(=S)Nc2ccc(NC(=O)c3ccccc3F)cc2)cc1 (stereo not drawn) [Example 777] | 1.7 (≈ 4.01 µM) | >7.5 | – | >10 | – | – | – | –
6 | CCCCN(C)c1cc(NC(=S)Nc2ccc(NC(=O)c3ccccc3F)cc2)cc(C(F)(F)F)c1 [Example 598] | >10 | >10 | – | >10 | – | – | – | –
7 | CSc1ccc(NC(=S)Nc2ccc(NC(=O)c3ccccc3C)cc2)cc1Cl [Example 342] | 1.4 (≈ 3.17 µM) | >10 | 62 | 0.2 (≈ 0.452 µM) | – | – | – | –
8 | COc1ccc(NC(=S)Nc2ccc(NC(=O)c3ccccc3F)cc2)cc1Br [Example 811] | 3.1 (≈ 6.54 µM) | >7.5 | – | 0.8 (≈ 1.69 µM) | – | – | – | –
9 | COc1cc(OC)c(NC(=S)Nc2ccc(NC(=O)c3cccc(OCCN(C)C)c3)cc2)cc1Cl [Example 257] | 7 (≈ 13.2 µM) | 2.5 (≈ 4.73 µM) | 105 | 2.5 (≈ 4.73 µM) | – | – | – | –
10 | COc1cc(OC)c(NC(=S)Nc2ccc(NC(=O)c3ccccc3C)cc2)cc1Cl [Example 114] | 5 (≈ 11 µM) | >10 | 17 | 0.3 (≈ 0.658 µM) | – | – | – | –
11 | COc1cc(OC)c(NC(=S)Nc2ccc(NC(=O)c3ccccc3F)c(C(=O)c3ccccc3)c2)cc1Cl [Example 293] | >10 | >10 | 2 | >50 | – | – | – | –
12 | COc1cc(OC)c(NC(=S)Nc2ccc(NC(=O)c3cccc(OCC(=O)O)c3)cc2)cc1Cl [Example 222] | >50 | >10 | 17 | >50 | – | – | – | –
13 | COc1cc(OC)c(NC(=S)Nc2ccc(NC(=O)c3ccccc3[S+](C)[O-])cc2)cc1Cl (stereo not drawn) [Example 220] | >10 | >10 | 35 | >10 | – | – | – | –
14 | COc1cc(OC)c(NC(=S)Nc2ccc(NC(=O)c3cccc(OCc4ccccc4)c3)cc2)cc1Cl [Example 210] | >10 | >10 | 14 | 5 (≈ 9.12 µM) | – | – | – | –
15 | Cc1ccc(NC(=S)Nc2ccc(NC(=O)c3ccccc3F)c(C)c2)cc1Cl [Example 395] | 3 (≈ 7.01 µM) | >10 | 64 | 0.2 (≈ 0.467 µM) | – | – | – | –
16 | COc1cc(OC)c(NC(=S)Nc2ccc(NC(=O)c3cccc(O)c3)cc2)cc1Cl [Example 254] | 4 (≈ 8.73 µM) | 4 (≈ 8.73 µM) | 110 | 0.9 (≈ 1.97 µM) | – | – | – | –
17 | COc1cccc(C(=O)Nc2ccc(NC(=S)NC(C)c3ccc(F)cc3)cc2)c1 (stereo not drawn) [Example 753] | >0.5 | >7.5 | – | >10 | – | – | – | –
18 | COc1cc(OC)c(NC(=S)Nc2ccc(NC(=O)c3ccccc3Cl)cc2)cc1Cl [Example 141] | 6 (≈ 12.6 µM) | >10 | 40 | 0.25 (≈ 0.525 µM) | – | – | – | –
19 | O=C(Nc1ccc(NC(=S)Nc2cccc(O)c2)cc1)c1ccccc1F [Example 475] | >10 | >10 | 28 | 5 (≈ 13.1 µM) | – | – | – | –
20 | O=C(CN1CCSCC1)Nc1ccc(NC(=S)Nc2ccc(NC(=O)c3ccccc3F)cc2)cc1Cl [Example 407] | >10 | 0.7 (≈ 1.25 µM) | 87 | 4 (≈ 7.17 µM) | – | – | – | –
21 | O=C(Nc1ccc(NC(=S)Nc2ccc(Cl)cc2O)cc1)c1ccccc1F [Example 1001, N-{4-[3-(4-Chloro-2-hydroxy-phenyl)-thioureido]-phenyl}-2-fluoro-benzamide] | – | – | – | – | 2.6 (≈ 6.25 µM) | – | 3.6 (≈ 8.66 µM) | 4.3 (≈ 10.3 µM)
22 | CC(=O)Oc1ccc(C(=O)Nc2ccc(NC(=S)NC(C)c3ccc(F)cc3)cc2)cc1 (stereo not drawn) [Example 757] | >10 | 1.5 (≈ 3.32 µM) | – | >10 | – | – | – | –
23 | O=C(Nc1ccc(NC(=S)Nc2cc(Cl)cc(Cl)c2)cc1)c1ccccc1F [Example 934, N-{4-[3-(3,5-Dichloro-phenyl)-thioureido]-phenyl}-2-fluoro-benzamide] | – | – | – | – | > 10 | 18 | > 10 | > 10
24 | CN(C)CCSCC(=O)Nc1ccc(NC(=S)Nc2ccc(NC(=O)c3ccccc3F)cc2)cc1Cl [Example 373] | 6 (≈ 10.7 µM) | >10 | 4 | 9 (≈ 16.1 µM) | – | – | – | –
25 | CC(NC(=S)Nc1ccc(NC(=O)c2nccc3ccccc23)cc1)c1ccc(F)cc1 (stereo not drawn) [Example 976, Isoquinoline-1-carboxylic acid (4-{3-[1-(4-fluoro-phenyl)-ethyl]-thioureido}-phenyl)-amide] | >10 | – | – | – | – | – | 0.04 (≈ 0.09 µM) | > 10
26 | Nc1c(Cl)cc(NC(=S)Nc2ccc(NC(=O)c3ccccc3F)cc2)cc1Cl [Example 518] | 4 (≈ 8.9 µM) | >10 | 32 | 0.25 (≈ 0.556 µM) | – | – | – | –
27 | COc1cc(OC)c(NC(=S)Nc2ccc(NC(=O)c3ccccc3N)cc2)cc1Cl [Example 181] | >10 | >10 | 60 | 1.5 (≈ 3.28 µM) | – | – | – | –
28 | CC(NC(=S)Nc1ccc(NC(=O)c2ccccc2F)cc1)c1ccc2ccccc2c1 (stereo not drawn) [Example 799] | 1.7 (≈ 3.83 µM) | >7.5 | – | >10 | – | – | – | –
29 | Cc1ccc(NC(=S)Nc2ccc(NC(=O)c3ccccc3F)cc2)cc1C(F)(F)F [Example 1003, 2-Fluoro-N-{4-[3-(4-methyl-3-trifluoromethyl-phenyl)-thioureido]-phenyl}-benzamide] | – | – | – | – | > 10 | – | > 10 | > 10
30 | CN1CCC(N(C)c2ccc(NC(=S)Nc3ccc(NC(=O)c4ccccc4F)cc3)cc2Cl)CC1 [Example 855, N-[4-(3-{3-Chloro-4-[methyl-(1-methyl-piperidin-4-yl)-amino]-phenyl}-thioureido)-phenyl]-2-fluoro-benzamide] | – | – | – | – | 0.7 (≈ 1.33 µM) | 52 | > 10 | 2.5 (≈ 4.75 µM)
